The values below come from patent publication US20260308172A1, “TRICYCLIC COMPOUNDS FOR TREATMENT OF BACTERIAL INFECTIONS” (priority 2023, published 2026).

A short description of series [1]: Human Microsome Stability Assay. To be noted: 1 μM compound, 0.5 mg/mL liver microsomal protein, 1 mM NADPH, pH 7.4, 37° C., 0-30 minutes; for CLint scaled at 1 µM: human, liver microsomes, read-out: Clearance of Human microsome. The class given is in vitro ADME. The protocol: The human microsomal stability assay is used for early assessment of metabolic stability of compounds of present invention in human liver microsomes. Human liver microsomes (Cat. NO.: 452117, Corning, USA) were pre-incubated with test compound for 10 minutes at 37° C. in 100 mM potassium phosphate buffer, pH 7.4. The reactions were initiated by adding NADPH regenerating system. The final incubation mixtures contained 1 μM compound, 0.5 mg/mL liver microsomal protein, 1 mM MgCl2 and 1 mM NADPH in 100 mM potassium phosphate buffer, pH 7.4. After incubation times of 0, 3, 6, 9, 15 and 30 minutes at 37° C., 300 μL of cold acetonitrile (including internal standard) was added to 100 μL incubation mixture to terminate the reaction. Following precipitation and centrifugation, the amount of compound remaining in the samples were determined by LC-MS/MS. Controls of no NADPH regenerating system at zero and 30 minutes were also prepared and analyzed.

Series [2] has as its system efflux-deficient E. coli strains. The following applies: in words; Bioorganic Chemistry 102 (2020) 104055; cited from earlier work.
Series [3] deals with Klebsiella pneumonia ATCC 43816. Briefly: Minimal Inhibitory Concentration (MIC) assay, Klebsiella pneumonia ATCC 43816. The class given is cell-based. To be noted: Klebsiella pneumoniae, ATCC43816, 20 h, read-out: MIC Klebsiella pneumoniae ATCC43816. The method, boiled down:
(§1)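 Broth microdilution in cation-adjusted Mueller Hinton broth with 2-fold serial compound dilutions, inoculum 5×10^5 CFU/mL. Plates incubated 20 h at 35 °C in ambient air. MIC (μg/mL) is the lowest concentration preventing visible growth; K. pneumoniae 43816 is a rifampin-resistant mutant.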

Series [4] has as its system Escherichia coli ATCC 25922. The experiment in a line: Minimal Inhibitory Concentration (MIC) assay, Escherichia coli ATCC 25922. It counts as cell-based. To be noted: ATCC25922, 20 h, read-out: MIC Escherichia coli ATCC25922. The method, boiled down:
as §1

Another series deals with LPS synthesis pathway. To be noted: in words; Bioorganic Chemistry 102 (2020) 104055; cited from earlier work.

The structures appear in SMILES notation. In brackets after ≈: the same amount, converted by molar mass.

By MIC is commonly meant the smallest concentration in the dilution series that meets the test's criterion for growth inhibition.

Turning to `CC(=O)N1CCc2cc(S(=O)(=O)N3CCN(c4cc(Cl)cc(C(F)(F)F)c4)CC3)ccc21` [Compound F-1, reference compound], in series [1], the CLint scaled at 1 µM amounted to 14 mL/min/kg. Also, the “antibiotic activity against efflux-deficient E. coli strains” value in series [2] is listed as “displaying antibiotic activity against efflux-deficient E. coli strains”. In addition, the minimum inhibitory concentration (MIC) in series [3] and in series [4] was more than 24 µg/mL each time. In the series with LPS synthesis pathway, the “LPS synthesis pathway inhibition activity” value is recorded as “having LPS synthesis pathway inhibition activity”.
Consider `NCCCN(CCCN)C(=O)[C@H]1CC[C@H](C(F)(F)c2cc(Cl)nc(N3CCN(S(=O)(=O)c4ccc5c(c4)OC[C@H]4[C@H](CO)OC(=O)N54)CC3)c2)CC1` [Example 048, 4-[[2-[4-[[(3R,3aS)-3-(hydroxymethyl)-1-oxo-3a,4-dihydro-3H-oxazolo[4,3-c][1,4]benzoxazin-7-yl]sulfonyl]piperazin-1-yl]-6-chloro-4-pyridyl]-difluoro-methyl]-N,N-bis(3-aminopropyl)cyclohexanecarboxamide], for which the CLint scaled at 1 µM in series [1] came out at 12.9 mL/min/kg. For the same compound, the MIC in series [3] and in series [4] was 0.64 µg/mL (≈ 0.831 µM) throughout.
Consider `NCCCNC(=O)[C@H]1CC[C@H](C(F)(F)c2cc(Cl)nc(N3CCN(S(=O)(=O)c4ccc5c(c4)OC[C@H]4[C@H](CO)OC(=O)N54)CC3)c2)CC1` [Example 049, 4-[[2-[4-[[(3R,3aS)-3-(hydroxymethyl)-1-oxo-3a,4-dihydro-3H-oxazolo[4,3-c][1,4]benzoxazin-7-yl]sulfonyl]piperazin-1-yl]-6-chloro-4-pyridyl]-difluoro-methyl]-N-(3-aminopropyl)cyclohexanecarboxamide], for which the “Clearance of Human microsome” value in series [1] was determined as 6.2 mL/min/kg. Further, the MIC in series [3] worked out at 0.29 µg/mL (≈ 0.407 µM); in series [4], 0.3 µg/mL (≈ 0.421 µM).
For `NCCC(=O)NC1CCC(Oc2cc(Cl)nc(N3CCN(S(=O)(=O)c4ccc5c(c4)OC[C@H]4[C@H](CO)OC(=O)N54)CC3)c2)CC1` (stereo partly drawn) [Example 051, N-[4-[[2-[4-[[(3R,3aS)-3-(hydroxymethyl)-1-oxo-3a,4-dihydro-3H-oxazolo[4,3-c][1,4]benzoxazin-7-yl]sulfonyl]piperazin-1-yl]-6-chloro-4-pyridyl]oxy]cyclohexyl]-3-amino-propanamide], the CLint scaled at 1 µM in series [1] was 13.1 mL/min/kg. The MIC worked out at 3.65 µg/mL (≈ 5.49 µM) in series [3] and 3.7 µg/mL (≈ 5.56 µM) in series [4].
The like results for `NCCN(CCN)CC(=O)N1CCC(C(F)(F)c2cc(Cl)nc(N3CCN(S(=O)(=O)c4ccc5c(c4)OC[C@@H]4[C@H](CO)OC(=O)N54)CC3)c2)CC1` [Example 052, (3R,3aR)-7-[4-[4-[[1-[2-[bis(2-aminoethyl)amino]acetyl]-4-piperidyl]-difluoro-methyl]-6-chloro-2-pyridyl]piperazin-1-yl]sulfonyl-3-(hydroxymethyl)-3a,4-dihydro-3H-oxazolo[4,3-c][1,4]benzoxazin-1-one] were, in that order, 6.4 mL/min/kg, 1.36 µg/mL (≈ 1.8 µM) and 0.68 µg/mL (≈ 0.898 µM).
`NCC(=O)N1CCC(C(F)(F)c2cc(Cl)nc(N3CCN(S(=O)(=O)c4ccc5c(c4)OC[C@@H]4[C@H](CO)OC(=O)N54)CC3)c2)CC1` [Example 053, (3R,3aR)-7-[4-[4-[[1-(2-aminoacetyl)-4-piperidyl]-difluoro-methyl]-6-chloro-2-pyridyl]piperazin-1-yl]sulfonyl-3-(hydroxymethyl)-3a,4-dihydro-3H-oxazolo[4,3-c][1,4]benzoxazin-1-one]: in series [1], the CLint scaled at 1 µM stood at 12.2 mL/min/kg. Also, the MIC in series [3] and in series [4] was 0.61 µg/mL (≈ 0.909 µM) throughout.
For `NCCC(=O)N1CCC(C(F)(F)c2cc(Cl)nc(N3CCN(S(=O)(=O)c4ccc5c(c4)OC[C@@H]4[C@H](CO)OC(=O)N54)CC3)c2)CC1` [Example 054, (3R,3aR)-7-[4-[4-[[1-(3-aminopropanoyl)-4-piperidyl]-difluoro-methyl]-6-chloro-2-pyridyl]piperazin-1-yl]sulfonyl-3-(hydroxymethyl)-3a,4-dihydro-3H-oxazolo[4,3-c][1,4]benzoxazin-1-one], the CLint scaled at 1 µM in series [1] turned out to be 6.4 mL/min/kg. Also, the MIC in series [3] and in series [4] was 0.62 µg/mL (≈ 0.905 µM) throughout.
On to `NCCN1CCC(C(F)(F)c2cc(Cl)nc(N3CCN(S(=O)(=O)c4ccc5c(c4)OC[C@@H]4[C@H](CO)OC(=O)N54)CC3)c2)CC1` [Example 055, (3R,3aR)-7-[4-[4-[[1-(2-aminoethyl)-4-piperidyl]-difluoro-methyl]-6-chloro-2-pyridyl]piperazin-1-yl]sulfonyl-3-(hydroxymethyl)-3a,4-dihydro-3H-oxazolo[4,3-c][1,4]benzoxazin-1-one], for which, in series [1], the CLint scaled at 1 µM is 7.8 mL/min/kg. In addition, the MIC in series [3] and in series [4] was 0.3 µg/mL (≈ 0.457 µM) in each case.
For `NCC(=O)NCC(=O)N1CCC(C(F)(F)c2cc(Cl)nc(N3CCN(S(=O)(=O)c4ccc5c(c4)OC[C@@H]4[C@H](CO)OC(=O)N54)CC3)c2)CC1` [Example 057, N-[2-[4-[[2-[4-[[(3R,3aR)-3-(hydroxymethyl)-1-oxo-3a,4-dihydro-3H-oxazolo[4,3-c][1,4]benzoxazin-7-yl]sulfonyl]piperazin-1-yl]-6-chloro-4-pyridyl]-difluoro-methyl]-1-piperidyl]-2-oxo-ethyl]-2-amino-acetamide], the CLint scaled at 1 µM in series [1] stood at 11.3 mL/min/kg. Besides, the MIC in series [3] and in series [4] was 0.66 µg/mL (≈ 0.906 µM) each time.
Take `C[N@@+]1(CC(N)=O)CCC[C@H]1C(=O)N[C@H]1CC[C@H](C(F)(F)c2cc(Cl)nc(N3CCN(S(=O)(=O)c4ccc5c(c4)OC[C@@H]4[C@H](CN)OC(=O)N54)CC3)c2)CC1` [Example 060, (1S,2S)—N-[4-[[2-[4-[[(3S,3aR)-3-(aminomethyl)-1-oxo-3a,4-dihydro-3H-oxazolo[4,3-c][1,4]benzoxazin-7-yl]sulfonyl]piperazin-1-yl]-6-chloro-4-pyridyl]-difluoro-methyl]cyclohexyl]-1-(2-amino-2-oxo-ethyl)-1-methyl-pyrrolidin-1-ium-2-carboxamide; chloride]: in series [1], the “Clearance of Human microsome” value is on record as 6.2 mL/min/kg. In addition, the MIC in series [3] and in series [4] was 0.51 µg/mL throughout.
For `C[N@+]1(CC(N)=O)CCC[C@H]1C(=O)N[C@H]1CC[C@H](C(F)(F)c2cc(Cl)nc(N3CCN(S(=O)(=O)c4ccc5c(c4)OC[C@@H]4[C@H](CN)OC(=O)N54)CC3)c2)CC1` [Example 061, (1R,2S)—N-[4-[[2-[4-[[(3S,3aR)-3-(aminomethyl)-1-oxo-3a,4-dihydro-3H-oxazolo[4,3-c][1,4]benzoxazin-7-yl]sulfonyl]piperazin-1-yl]-6-chloro-4-pyridyl]-difluoro-methyl]cyclohexyl]-1-(2-amino-2-oxo-ethyl)-1-methyl-pyrrolidin-1-ium-2-carboxamide;chloride], in series [1], the “Clearance of Human microsome” value was found to be 6.2 mL/min/kg. The MIC was found to be 0.34 µg/mL in series [3] and 0.68 µg/mL in series [4].
`NC(=O)C[N+]1(CCNC(=O)[C@H]2CC[C@H](C(F)(F)c3cc(Cl)nc(N4CCN(S(=O)(=O)c5ccc6c(c5)OC[C@@H]5[C@H](CO)OC(=O)N65)CC4)c3)CC2)CCCC1.[Cl-]` [Example 063, 4-[[2-[4-[[(3R,3aR)-3-(hydroxymethyl)-1-oxo-3a,4-dihydro-3H-oxazolo[4,3-c][1,4]benzoxazin-7-yl]sulfonyl]piperazin-1-yl]-6-chloro-4-pyridyl]-difluoro-methyl]-N-[2-[1-(2-amino-2-oxo-ethyl)pyrrolidin-1-ium-1-yl]ethyl]cyclohexanecarboxamide; chloride]: the CLint scaled at 1 µM in series [1] came to 10.2 mL/min/kg. Besides, the MIC in series [3] was determined as 2.01 µg/mL; in series [4], 2 µg/mL.
